# Measured values reported in patent US20210170035A1, “METHOD OF TREATING CANCER BY TARGETING MYELOID-DERIVED SUPPRESSOR CELLS” (priority 2016, published 2021).
# How the values were obtained:
# [1] = test system: F4/80+ macrophages; assay: Intracellular staining of arginase on F4/80+ macrophages from 4T1 solid tumor; assay type: in vivo, balb/c mice; settings: tumor digestion at end of therapeutic study
# Method: Intracellular arginase staining: Cell surface markers for TAMs/MDSCs were labeled following procedures mentioned previously. 0.1 μL fixable viability dye eFluor® 660 was added together with antibody cocktails. After washing with PBS, cells were fixed with 4% formaldehyde in 500 μL of PBS for 15 min at 4° C. Cells were spun down to remove fixing solution. Cells were washed two times with 500 μL washing buffer containing 0.1 M glycine and 0.05% sodium azide. After being spun down a final time, cells were added 1 mL permeabilization solution containing 0.1 M glycine, 0.05% sodium azide and 0.1% triton-100. Permeabilization was performed at room temperature for 5 min. Permeabilized cells were spun down at 1500 rpm for 1 min, and the cells were washed three times with 1 mL blocking buffer containing 0.05 M glycine, 0.05% sodium azide and 0.2% gelatin. Cells were then re-suspended in 1 mL blocking buffer at 4° C. overnight to block non-specific intracellular binding. Cells were then spun down at 1500 rpm for 1 min to remove the supernatant and another 100 μL blocking buffer containing 1 μL FITC-arginase was added. Cells were kept in the dark at 4° C. overnight. After being spun down at 1500 rpm for 1 min, cells were washed with 1 mL blocking buffer and were then ready for flow cytometry analysis (BD Accuri C6™ flow cytometer). […]
# [2] = test system: F4/80+CD86+ : F4/80+CD206+ macrophages; assay: Ratio of M1 to M2 macrophages in 4T1 solid tumor; assay type: in vivo, balb/c mice; settings: tumor digestion at end of therapeutic study
# Method: The ratio of M1 to M2 macrophages (F4/80+CD86+: F4/80+CD206+) was tested in groups of untreated control, FA-TLR7 agonist, FA-PI3K inhibitor, FA-Tubulysin and combination as well as competition groups.
# As described in the previous methods part, after tumor digestion at the end of therapeutic study, isolated cells were stained by F4/80 macrophage marker and M1 (CD86), M2 (CD206) markers. Macrophages in a tumor environment have been considered as a mainly M2 macrophage function, which can support tumor growth and suppress the immune response. On the other hand, M1 macrophages have been considered to be able to eliminate tumor cells and stimulate an anti-cancer immune response. Therefore, to study the M1 to M2 macrophage ratio is very important for targeting FR-β positive TAMs/MDSCs. […] Therefore, it could be concluded that by targeting FR+ TAMs/MDSCs in 4T1 solid tumor, the three classes of FA-conjugated […] are able to convert immunosuppression M2 macrophages environment to an anti-cancer M1 macrophages environment, which would contribute to the slow growth of a tumor.
# [3] = test system: MDSCs (CD11b+Gr1+); assay: MDSCs population (CD11b+Gr1+) in 4T1 solid tumor; assay type: in vivo, balb/c mice; settings: tumor digestion at end of therapeutic study
# Method: The MDSCs population (CD11b+Gr1+) was tested in groups of untreated control, FA-TLR7 agonist, FA-PI3K inhibitor, FA-Tubulysin and combination as well as competition groups.
# As described in previous methods part, after tumor digestion at the end of therapeutic study, isolated cells were stained by MDSCs markers CD11b+Gr1+, see FIG. 26.
# [4] = test system: 4T1 solid tumor
# Method: 4T1 solid tumor model: Female balb/c mice at the age of 6 to 8 weeks were kept on a folate deficient diet for 2 weeks. Before tumor implantation, fur on the left side of the mouse body was removed by an electric trimmer. 0.05 million 4T1 cells suspended in 50 μL completed RPMI 1640 medium were subcutaneously implanted near the mammary fat pad. Treatment was commenced at day 6 when the volume of tumor reached around 20 to 50 mm^3.
# Treatment was continued for 2 weeks. Tumor volume was measured every day.
# Treatment was conducted by i.v. injection of 100 μl of 10 nmol FA-TLR7 agonist in PBS for 5 days per week starting at day 6 after tumor implantation (subcutaneous, 0.05 million cells/mouse). Treatment was continued for 2 weeks. Competition group was conducted at the same schedule by co-injection of 200 times more competitors (FA-PEG-NH2) with 10 nmol of FA-TLR7 agonist. The total injection volume was 100 μl. Tumor volume was measured every day.
# Treatment was conducted by i.v. injection of 100 μl of 30 nmol FA-tubulysin in PBS for 5 days per week starting at day 6 after tumor implantation (subcutaneous, 0.05 million cells/mouse). Treatment was continued for 2 weeks. Competition group was conducted at the same schedule by co-injection of 200 times more competitors (FA-PEG-NH2) with 30 nmol of FA-tubulysin. The total injection volume was 100 μl. Tumor volume was measured every day.
# Treatment was conducted by i.v. injection of 100 μl of 10 nmol FA-PI3K inhibitor in PBS for 5 days per week starting at day 6 after tumor implantation (subcutaneous, 0.05 million cells/mouse). Treatment was continued for 2 weeks. Competition group was conducted at the same schedule by co-injection of 200 times more competitors (FA-PEG-NH2) with 10 nmol of FA-PI3K inhibitor. The total injection volume was 100 μl. Tumor volume was measured every day.
structure (smiles),measurement,setting,value
CCCCc1nc2c(N)nc3ccccc3c2n1CC(C)(C)OC(=O)OCCSSCC(NC(=O)CCC(NC(=O)c1ccc(NCc2cnc3nc(N)[nH]c(=O)c3n2)cc1)C(=O)O)C(=O)O (stereo not drawn) [FA-TLR7 agonist],arginase+F4/80+ cell population in live cells vs untreated control,[1],dramatically decreased
same,M1 to M2 macrophages ratio vs untreated control,[2],dramatically increased
same,MDSCs population (CD11b+Gr1+) vs untreated control,[3],dramatically decreased MDSCs population
same,anti-cancer effect on co-injection of 200 times more competitor (FA-PEG-NH2),"[4]; competition group, same schedule",can be competed
same,"tumor growth, therapeutic study","[4]; i.v. 5 days per week for 2 weeks from day 6, 10 nmol FA-TLR7 agonist, 10 nmol FA-PI3K inhibitor, 30 nmol FA-tubulysin",tumor growth was slowed down
same,"tumor growth, dose study","[4]; i.v. 5 days per week for 2 weeks from day 6, especially in groups of 5 nmol, 10 nmol and 20 nmol",tumor growth was slowed down
